Bounds are passed on as bounds.

One may read the IC50 as the concentration at which inhibition is half-maximal.

The test concerns the target T1, aurora-A (human) (Homo sapiens, UniProt O14965).
T1 construct: purchased Upstate, Dundee, UK
T1 sequence (O14965 1-403): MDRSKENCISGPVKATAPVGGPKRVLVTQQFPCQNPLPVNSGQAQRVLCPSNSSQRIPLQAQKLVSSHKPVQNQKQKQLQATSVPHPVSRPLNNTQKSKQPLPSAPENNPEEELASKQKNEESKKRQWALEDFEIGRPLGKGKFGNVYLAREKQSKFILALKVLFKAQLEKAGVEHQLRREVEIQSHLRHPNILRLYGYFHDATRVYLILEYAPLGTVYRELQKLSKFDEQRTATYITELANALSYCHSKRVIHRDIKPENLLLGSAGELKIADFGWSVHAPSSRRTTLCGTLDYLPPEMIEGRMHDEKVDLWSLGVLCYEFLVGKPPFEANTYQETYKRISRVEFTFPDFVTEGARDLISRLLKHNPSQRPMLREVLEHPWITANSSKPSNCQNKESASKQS
Description: Aurora-A (human) kinase assay. Format: biochemical. To be noted: read-out: Activity (Aurora A activity, IC50 grading). Summed up: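 Radiometric assay measuring [γ-32P] transfer from 100 μM ATP to 500 μM Kemptide by 2-5 ng active human aurora-A, pH 7.5 buffer, 30 min at 30° C. Incorporated label captured on P81 filters and counted by scintillation; IC50 from curve fitting.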
Consider `Cc1c(-c2ccnc(Nc3ccccc3F)n2)c(C)n2c1C(=O)NCC2` [Example I-65, 7-[2-(2-Fluoro-phenylamino)-pyrimidin-4-yl]-6,8-dimethyl-3,4-dihydro-2H-pyrrolo[1,2-a]pyrazin-1-one], for which the IC50 was < 1000 nM. With `Cc1c(-c2ccnc(Nc3cccc(OCC(=O)O)c3)n2)c(C)n2c1C(=O)NCC2` [Example I-41, {3-[4-(6,8-Dimethyl-1-oxo-1,2,3,4-tetrahydro-pyrrolo[1,2-a]pyrazin-7-yl)-pyrimidin-2-ylamino]-phenoxy}-acetic acid] the figure was < 100 nM. With `Cc1c(-c2ccnc(Nc3ccc(S(C)(=O)=O)cc3)n2)c(C)n2c1C(=O)NCC2` [Example I-33, 7-[2-(4-Methanesulfonyl-phenylamino)-pyrimidin-4-yl]-6,8-dimethyl-3,4-dihydro-2H-pyrrolo[1,2-a]pyrazin-1-one] the figure was < 100 nM. With `Cc1c(-c2ccnc(Nc3ccc(C(=O)NC4CCN(C)CC4)cc3)n2)c(C)n2c1C(=O)NCC2` [Example I-115, 4-[4-(6,8-Dimethyl-1-oxo-1,2,3,4-tetrahydro-pyrrolo[1,2-a]pyrazin-7-yl)-pyrimidin-2-ylamino]-N-(1-methyl-piperidin-4-yl)-benzamide] the figure was < 100 nM. `Cc1c(-c2ccnc(Nc3ccc(C(=O)O)cc3)n2)c(C)n2c1C(=O)NCC2` [Example I-26, 4-[4-(6,8-Dimethyl-1-oxo-1,2,3,4-tetrahydro-pyrrolo[1,2-a]pyrazin-7-yl)-pyrimidin-2-ylamino]-benzoic acid]: the IC50 is < 100 nM. As for `Cc1c(-c2ccnc(Nc3ccc4c(c3)CS(=O)(=O)C4)n2)c(C)n2c1C(=O)NCC2` [Example I-63, 7-[2-(2,2-Dioxo-2,3-dihydro-1H-2-benzo[c]thiophen-5-ylamino)-pyrimidin-4-yl]-6,8-dimethyl-3,4-dihydro-2H-pyrrolo[1,2-a]pyrazin-1-one], the IC50 was < 100 nM. With `Cc1c(-c2ccnc(Nc3cccc(CCC(N)=O)c3)n2)c(C)n2c1C(=O)NCC2` [Example I-111, 3-{3-[4-(6,8-Dimethyl-1-oxo-1,2,3,4-tetrahydro-pyrrolo[1,2-a]pyrazin-7-yl)-pyrimidin-2-ylamino]-phenyl}-propionamide] the figure was < 100 nM. With `Cc1c(-c2ccnc(Nc3cccc(OC(F)(F)F)c3)n2)c(C)n2c1C(=O)NCC2` [Example I-30, 6,8-Dimethyl-7-[2-(3-trifluoromethoxy-phenylamino)pyrimidin-4-yl]-3,4-dihydro-2H-pyrrolo[1,2-a]pyrazin-1-one] the figure was < 10000 nM; with `CNC(=O)Cc1ccc(Nc2nccc(-c3c(C)c4n(c3C)CCNC4=O)n2)cc1` [Example I-103, 2-{4-[4-(6,8-Dimethyl-1-oxo-1,2,3,4-tetrahydro-pyrrolo[1,2-a]pyrazin-7-yl)-pyrimidin-2-ylamino]-phenyl}-N-methyl-acetamide], < 100 nM.

For `Cc1nccc(-c2cccc(Nc3nccc(-c4c(C)c5n(c4C)CCNC5=O)n3)c2)n1` [Example I-46, 6,8-Dimethyl-7-{2-[3-(2-methyl-pyrimidin-4-yl)-phenylamino]-pyrimidin-4-yl}-3,4-dihydro-2H-pyrrolo[1,2-a]pyrazin-1-one], the IC50 was < 100 nM. The result for `Cc1c(-c2ccnc(Nc3ccc(-c4cnco4)cc3)n2)c(C)n2c1C(=O)NCC2` [Example I-52, 6,8-Dimethyl-7-[2-(4-oxazol-5-yl-phenylamino)-pyrimidin-4-yl]-3,4-dihydro-2H-pyrrolo[1,2-a]pyrazin-1-one] reads < 1000 nM.

For `Cc1c(-c2ccnc(Nc3ccc(CC(=O)N4CCN(C)CC4)cc3)n2)c(C)n2c1C(=O)NCC2` [Example I-101, 6,8-Dimethyl-7-(2-{4-[2-(4-methyl-piperazin-1-yl)-2-oxo-ethyl]-phenylamino}-pyrimidin-4-yl)-3,4-dihydro-2H-pyrrolo[1,2-a]pyrazin-1-one], the IC50 was < 100 nM. The result for `Cc1c(-c2ccnc(Nc3cccc(CCC(=O)N(C)CCCN(C)C)c3)n2)c(C)n2c1C(=O)NCC2` [Example I-107, N-(3-Dimethylamino-propyl)-3-{3-[4-(6,8-dimethyl-1-oxo-1,2,3,4-tetrahydro-pyrrolo[1,2-a]pyrazin-7-yl)-pyrimidin-2-ylamino]-phenyl}-N-methyl-propionamide] reads < 1000 nM. With `COc1ccc(Nc2nccc(-c3c(C)c4n(c3C)CCNC4=O)n2)cn1` [Example I-13b, 7-[2-(6-Methoxy-pyridin-3-ylamino)-pyrimidin-4-yl]-6,8-dimethyl-3,4-dihydro-2H-pyrrolo[1,2-a]pyrazin-1-one] the figure was < 1000 nM; with `Cc1c(-c2ccnc(Nc3ccc(-c4cccnc4)cc3)n2)c(C)n2c1C(=O)NCC2` [Example I-78, 6,8-Dimethyl-7-[2-(4-pyridin-3-yl-phenylamino)-pyrimidin-4-yl]-3,4-dihydro-2H-pyrrolo[1,2-a]pyrazin-1-one], < 1000 nM; with `Cc1c(-c2ccnc(Nc3ccc4c(c3)CS(=O)(=O)C4)n2)c(C)n2c1C(=O)N(C)CC2` [Example I-94, 7-[2-(2,2-Dioxo-2,3-dihydro-1H-2-benzo[c]thiophen-5-ylamino)-pyrimidin-4-yl]-2,6,8-trimethyl-3,4-dihydro-2H-pyrrolo[1,2-a]pyrazin-1-one], < 100 nM. With `COc1cc(Nc2nccc(-c3c(C)c4n(c3C)CCNC4=O)n2)ccc1S(=O)(=O)N1CCN(C)CC1` [Example I-24, 7-{2-[3-Methoxy-4-(4-methyl-piperazine-1-sulfonyl)-phenylamino]-pyrimidin-4-yl}-6,8-dimethyl-3,4-dihydro-2H-pyrrolo[1,2-a]pyrazin-1-one] the figure was < 1000 nM. As to `Cc1c(-c2ccnc(Nc3cccc(Cl)c3)n2)c(C)n2c1C(=O)NCC2` [Example I-69, 7-[2-(3-Chloro-phenylamino)-pyrimidin-4-yl]-6,8-dimethyl-3,4-dihydro-2H-pyrrolo[1,2-a]pyrazin-1-one], the IC50 is < 1000 nM. The result for `Cc1c(-c2ccnc(Nc3ccc(C#N)cc3)n2)c(C)n2c1C(=O)NCC2` [Example I-77, 4-[4-(6,8-Dimethyl-1-oxo-1,2,3,4-tetrahydro-pyrrolo[1,2-a]pyrazin-7-yl)-pyrimidin-2-ylamino]-benzonitrile] reads < 1000 nM; that for `Cc1c(-c2ccnc(Nc3ccc(-n4cccc4)cc3)n2)c(C)n2c1C(=O)NCC2` [Example I-74, 6,8-Dimethyl-7-[2-(4-pyrrol-1-yl-phenylamino)-pyrimidin-4-yl]-3,4-dihydro-2H-pyrrolo[1,2-a]pyrazin-1-one], < 1000 nM; that for `Cc1c(-c2ccnc(Nc3ccc(CC(=O)N(C)C)cc3)n2)c(C)n2c1C(=O)NCC2` [Example I-104, 2-{4-[4-(6,8-Dimethyl-1-oxo-1,2,3,4-tetrahydro-pyrrolo[1,2-a]pyrazin-7-yl)-pyrimidin-2-ylamino]-phenyl}-N,N-dimethyl-acetamide], < 1000 nM. Take `Cc1c(-c2ccnc(Nc3cccc(CCC(=O)O)c3)n2)c(C)n2c1C(=O)NCC2` [Example I-34, 3-{3-[4-(6,8-Dimethyl-1-oxo-1,2,3,4-tetrahydro-pyrrolo[1,2-a]pyrazin-7-yl)-pyrimidin-2-ylamino]-phenyl}-propionic acid]: the IC50 is < 100 nM. For `Cc1c(-c2ccnc(Nc3ccc(OC(F)(F)F)cc3)n2)c(C)n2c1C(=O)NCC2` [Example I-61, 6,8-Dimethyl-7-[2-(4-trifluoromethoxy-phenylamino)pyrimidin-4-yl]-3,4-dihydro-2H-pyrrolo[1,2-a]pyrazin-1-one], the IC50 is < 1000 nM. The result for `Cc1c(-c2ccnc(Nc3cccc(-c4cnco4)c3)n2)c(C)n2c1C(=O)NCC2` [Example I-49, 6,8-Dimethyl-7-[2-(3-oxazol-5-yl-phenylamino)-pyrimidin-4-yl]-3,4-dihydro-2H-pyrrolo[1,2-a]pyrazin-1-one] reads < 1000 nM; that for `Cc1c(-c2ccnc(Nc3cccc(C(=O)c4ccccc4)c3)n2)c(C)n2c1C(=O)NCC2` [Example I-58, 7-[2-(3-Benzoyl-phenylamino)-pyrimidin-4-yl]-6,8-dimethyl-3,4-dihydro-2H-pyrrolo[1,2-a]pyrazin-1-one], < 1000 nM. With `CC(=O)Nc1ccc(Nc2nccc(-c3c(C)c4n(c3C)CCNC4=O)n2)cc1Cl` [Example I-47, N-{2-Chloro-4-[4-(6,8-dimethyl-1-oxo-1,2,3,4-tetrahydro-pyrrolo[1,2-a]pyrazin-7-yl)-pyrimidin-2-ylamino]-phenyl}-acetamide] the figure was < 1000 nM; with `Cc1c(-c2ccnc(Nc3cccc(CCC(=O)N4CCN(C)CC4)c3)n2)c(C)n2c1C(=O)NCC2` [Example I-110, 6,8-Dimethyl-7-(2-{3-[3-(4-methyl-piperazin-1-yl)-3-oxo-propyl]-phenylamino}-pyrimidin-4-yl)-3,4-dihydro-2H-pyrrolo[1,2-a]pyrazin-1-one], < 1000 nM. The result for `Cc1c(-c2ccnc(Nc3ccc(CC(N)=O)cc3)n2)c(C)n2c1C(=O)NCC2` [Example I-102, 2-{4-[4-(6,8-Dimethyl-1-oxo-1,2,3,4-tetrahydro-pyrrolo[1,2-a]pyrazin-7-yl)-pyrimidin-2-ylamino]-phenyl}-acetamide] reads < 100 nM; that for `CCOC(=O)c1cnn(-c2ccc(Nc3nccc(-c4c(C)c5n(c4C)CCNC5=O)n3)cc2)c1C` [Example I-81, 1-{4-[4-(6,8-Dimethyl-1-oxo-1,2,3,4-tetrahydro-pyrrolo[1,2-a]pyrazin-7-yl)-pyrimidin-2-ylamino]-phenyl}-5-methyl-1H-pyrazole-4-carboxylic acid ethyl ester], < 1000 nM.

These data come from patent US8404692B2, “Pyrimidin-4-yl-3, 4-dihydro-2H-pyrrolo [1,2A] pyrazin-1-one compounds” (Cyclacel Limited, priority 2005, dated 2013).
